Measured values taken from PubChem BioAssay AID220 (DTP/NCI, 2004).
Where “and” joins values, the source holds several entries; their conditions need not be identical. Equal values may be shown once. Results filed as inconclusive are left out.

System: CD8F1 mice, subcutaneous mammary adenocarcinoma, T/C%
Test: NCI In Vivo Anticancer Drug Screen. Data for tumor model Mammary Adenocarcinoma CD8F1 (subcutaneous) in CD8F1
Settings: higher = larger tumour
Outline: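 Antitumor activity is assessed in transplantable-tumor mice by comparing the treated group with a vehicle-treated control group. Survival or tumor size serves as the measure, reported as T divided by C.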

[1] = endpoint: median tumor weight (est.), dose: 12.5 mg/kg/injection, schedule: Q07DX005 (ip), vehicle: saline with Tween-80
[2] = endpoint: median tumor weight (est.), dose: 25.0 mg/kg/injection, schedule: Q07DX005 (ip), vehicle: saline with Tween-80
[3] = endpoint: median tumor weight (est.), dose: 50.0 mg/kg/injection, schedule: Q07DX005 (ip), vehicle: saline with Tween-80

In the case of `COC1=C(C)C(=O)C2=C(C1=O)C1C3CC4=C(C(=O)C(OC)=C(C)C4=O)C(CNC(=O)C(C)=O)N3C(C#N)C(C2)N1C` (centres undefined), the T/C (endpoint: median tumor weight change, dose: 0.62 mg/kg/injection, schedule: Q01DX001 (ip), vehicle: Klucel (hydroxypropylcellulose) (HPC)) is reported as 114 % of control, the T/C (endpoint: median tumor weight change, dose: 0.63 mg/kg/injection, schedule: Q01DX001 (ip), vehicle: Klucel (hydroxypropylcellulose) (HPC)) is reported as 119 % of control and the T/C (endpoint: median tumor weight change, dose: 1.2 mg/kg/injection, schedule: Q01DX001 (ip), vehicle: Klucel (hydroxypropylcellulose) (HPC)) is reported as 109 % of control. For the same compound, the T/C (endpoint: median tumor weight change, dose: 1.25 mg/kg/injection, schedule: Q01DX001 (ip), vehicle: Klucel (hydroxypropylcellulose) (HPC)) was 96 % of control and the T/C (endpoint: median tumor weight change, dose: 2.5 mg/kg/injection, schedule: Q01DX001 (ip), vehicle: Klucel (hydroxypropylcellulose) (HPC)) was 98 % of control and 114 % of control.
`Cc1cn(C2CC3[O][Sn]([c]4ccccc4)([c]4ccccc4)[O]CC3O2)c(=O)[nH]c1=O` (centres undefined) was tested, and the T/C [1] was 73 % of control, the T/C (endpoint: median tumor weight (est.), dose: 12.5 mg/kg/injection, schedule: Q07DX005 (ip), vehicle: saline) was 63 % of control and the T/C [2] was 40 % of control. The T/C (endpoint: median tumor weight (est.), dose: 25.0 mg/kg/injection, schedule: Q07DX005 (ip), vehicle: saline) was 16 % of control, the T/C [3] was 67 % of control and the T/C (endpoint: median tumor weight (est.), dose: 50.0 mg/kg/injection, schedule: Q07DX005 (ip), vehicle: saline) was 84 % of control. For the same compound, the T/C (endpoint: median tumor weight (est.), dose: 100.0 mg/kg/injection, schedule: Q07DX005 (ip), vehicle: saline with Tween-80) was 81 % of control, the T/C (endpoint: median tumor weight (est.), dose: 100.0 mg/kg/injection, schedule: Q07DX005 (ip), vehicle: saline) was 49 % of control and the T/C (endpoint: median tumor weight (est.), dose: 200.0 mg/kg/injection, schedule: Q07DX005 (ip), vehicle: saline with Tween-80) was 73 % of control. For the same compound, the T/C (endpoint: median tumor weight (est.), dose: 200.0 mg/kg/injection, schedule: Q07DX005 (ip), vehicle: saline) was 74 % of control and the T/C (endpoint: median tumor weight (est.), dose: 500.0 mg/kg/injection, schedule: Q07DX005 (ip), vehicle: saline with Tween-80) was 47 % of control.
In the case of `c1ccc2c(c1)-c1ccccc1C1NC21` (centres undefined), the T/C (endpoint: median tumor weight change, dose: 62.0 mg/kg/injection, schedule: Q01DX001 (ip), vehicle: saline with Tween-80) is reported as 58 % of control.
For `COc1cc2cc[n+](C)c(Cc3ccccc3)c2cc1OC`, the T/C (endpoint: median tumor weight (est.), dose: 6.25 mg/kg/injection, schedule: Q07DX005 (ip), vehicle: saline with Tween-80) was 123 % of control, the T/C [1] was 83 % of control and the T/C [2] was 94 % of control. The T/C [3] was 75 % of control.
For `CCS/C(SC)=C(/c1ccccc1)[P+](c1ccccc1)(c1ccccc1)c1ccccc1`, the T/C (endpoint: median tumor weight change, dose: 0.5 mg/kg/injection, schedule: Q01DX001 (ip), vehicle: Klucel (hydroxypropylcellulose) (HPC)) was 159 % of control, the T/C (endpoint: median tumor weight change, dose: 1.0 mg/kg/injection, schedule: Q01DX001 (ip), vehicle: Klucel (hydroxypropylcellulose) (HPC)) was 100 % of control and the T/C (endpoint: median tumor weight change, dose: 2.0 mg/kg/injection, schedule: Q01DX001 (ip), vehicle: Klucel (hydroxypropylcellulose) (HPC)) was 114 % of control. The T/C (endpoint: median tumor weight change, dose: 4.0 mg/kg/injection, schedule: Q01DX001 (ip), vehicle: Klucel (hydroxypropylcellulose) (HPC)) was 81 % of control and the T/C (endpoint: median tumor weight change, dose: 8.0 mg/kg/injection, schedule: Q01DX001 (ip), vehicle: Klucel (hydroxypropylcellulose) (HPC)) was 43 % of control.
For `Nc1ncnc2c1nnn2C1OC(CO)C(O)C1O` (centres undefined), the T/C (endpoint: median tumor weight change, dose: 62.5 mg/kg/injection, schedule: Q01DX001 (ip), vehicle: Klucel (hydroxypropylcellulose) (HPC)) was 111 % of control and the T/C (endpoint: median tumor weight change, dose: 250.0 mg/kg/injection, schedule: Q01DX001 (ip), vehicle: Klucel (hydroxypropylcellulose) (HPC)) was 39 % of control and 40 % of control.
For `Cn1c(=O)c2ncnnc2n(C)c1=O`, the T/C (endpoint: median tumor weight (est.), dose: 4.7 mg/kg/injection, schedule: Q07DX005 (ip), vehicle: Klucel (hydroxypropylcellulose) (HPC)) was 59 % of control, the T/C (endpoint: median tumor weight (est.), dose: 9.4 mg/kg/injection, schedule: Q07DX005 (ip), vehicle: Klucel (hydroxypropylcellulose) (HPC)) was 63 % of control and the T/C (endpoint: median tumor weight (est.), dose: 18.8 mg/kg/injection, schedule: Q07DX005 (ip), vehicle: Klucel (hydroxypropylcellulose) (HPC)) was 52 % of control.
With `CN(C=O)C(C(=O)Nc1cccc2c(OC(=O)C(N(C)C=O)(N(C)C=O)N(C)C=O)c(N=Nc3ccc(S(=O)(=O)Nc4nccs4)cc3)cc(N=Nc3ccc(S(=O)(=O)Nc4nccs4)cc3)c12)(N(C)C=O)N(C)C=O` (tested in a mixture with another compound) the T/C (endpoint: median tumor weight change, dose: 250.0 mg/kg/injection, schedule: Q01DX001 (ip), vehicle: saline with Tween-80) was 100 % of control, the T/C (endpoint: median tumor weight change, dose: 1000.0 mg/kg/injection, schedule: Q01DX001 (ip), vehicle: saline with Tween-80) was 119 % of control and the T/C (endpoint: median tumor weight change, dose: 2000.0 mg/kg/injection, schedule: Q01DX001 (ip), vehicle: saline with Tween-80) was 63 % of control.
